Reference: patent US20140309244A1, “NOVEL MICROBIOCIDES” (SYNGENTA PARTICIPATIONS AG, priority 2010, published 2014)

Columns and labels:
[1] = system: Puccinia recondita f. sp. tritici; experiment: Puccinia recondita f. sp. tritici / wheat / leaf disc preventative (brown rust); assay type: in vivo; conditions: foliar, wheat cv Kanzler leaf segments, inoculated 1 day after application, assessed 7-9 days after application, read-out: control of Puccinia recondita f. sp. tritici (percent disease control compared to untreated)
Experimental: Puccinia recondita f. sp. tritici/Wheat/Leaf Disc Preventative (Brown Rust) Wheat leaf segments cultivated variety (cv) Kanzler were placed on agar in 24-well plates and sprayed with formulated test compound diluted in water at an application rate of 200 ppm. The leaf disks were inoculated with a spore suspension of the fungus 1 day after application. The inoculated leaf segments were incubated at 19° C. and 75% relative humidity under a light regime of 12/12 h (light/dark) in a climate cabinet and the activity of a compound was assessed as percent disease control compared to untreated when an appropriate level of disease damage appears in untreated check leaf segments (7-9 days after application). […].103

[2] = system: Puccinia recondita f. sp. tritici; experiment: Puccinia recondita f. sp. tritici / wheat / leaf disc curative (brown rust); assay type: in vivo; conditions: foliar, wheat cv Kanzler leaf segments, applied 1 day after inoculation, assessed 6-8 days after application, read-out: control of Puccinia recondita f. sp. tritici (percent disease control compared to untreated)
Experimental: Puccinia recondita f. sp. tritici/Wheat/Leaf Disc Curative (Brown Rust): Wheat leaf segments cv Kanzler were placed on agar in 24-well plates. The leaf segments were inoculated with a spore suspension of the fungus. The plates were stored in darkness at 19° C. and 75% relative humidity. The formulated test compound diluted in water was applied at an application rate of 200 ppm 1 day after inoculation.

[3] = system: Phaeosphaeria nodorum (Septoria nodorum); experiment: Phaeosphaeria nodorum (Septoria nodorum) / wheat / leaf disc preventative (glume blotch); assay type: in vivo; conditions: Parastagonospora nodorum, foliar, wheat cv Kanzler leaf segments, inoculated 2 days after application, assessed 5-7 days after application, read-out: control of Phaeosphaeria nodorum (percent disease control compared to untreated)
Pyrenophora teres = Pyrenophora teres / barley / leaf disc preventative (net blotch); assay type: in vivo; conditions: foliar, barley cv Hasso leaf segments, inoculated two days after application, assessed 5-7 days after application, read-out: control of Pyrenophora teres (disease control compared to untreated)
[4] = system: Botryotinia fuckeliana (Botrytis cinerea); experiment: Botryotinia fuckeliana (Botrytis cinerea) / liquid culture (gray mould); assay type: cell-based; conditions: Vogels broth, 96-well plate, 24° C., 3-4 days after application, read-out: control of Botryotinia fuckeliana (inhibition of growth, photometric)
[5] = system: Glomerella lagenarium (Colletotrichum lagenarium); experiment: Glomerella lagenarium (Colletotrichum lagenarium) / liquid culture (anthracnose); assay type: cell-based; conditions: Colletotrichum orbiculare, PDB potato dextrose broth, 96-well plate, 24° C., 3-4 days after application, read-out: control of Glomerella lagenarium (inhibition of growth, photometric)
[6] = system: Mycosphaerella arachidis (Cercospora arachidicola); experiment: Mycosphaerella arachidis (Cercospora arachidicola) / liquid culture (early leaf spot); assay type: cell-based; conditions: PDB potato dextrose broth, 96-well plate, 24° C., 4-5 days after application, read-out: control of Mycosphaerella arachidis (inhibition of growth, photometric)
[7] = system: Mycosphaerella graminicola (Septoria tritici); experiment: Mycosphaerella graminicola (Septoria tritici) / liquid culture (Septoria blotch); assay type: cell-based; conditions: Zymoseptoria tritici, PDB potato dextrose broth, 96-well plate, 24° C., 4-5 days after application, read-out: control of Mycosphaerella graminicola (inhibition of growth, photometric)
Gaeumannomyces graminis = Gaeumannomyces graminis / liquid culture (take-all of cereals); assay type: cell-based; conditions: liquid culture of mycelial fragments, PDB potato dextrose broth, 96-well plate, 24° C., 4-5 days after application, read-out: control of Gaeumannomyces graminis (inhibition of growth, photometric)
[8] = system: Thanatephorus cucumeris (Rhizoctonia solani); experiment: Thanatephorus cucumeris (Rhizoctonia solani) / liquid culture (foot rot, damping-off); assay type: cell-based; conditions: liquid culture of mycelia fragments, PDB potato dextrose broth, 96-well plate, 24° C., 3-4 days after application, read-out: control of Thanatephorus cucumeris (inhibition of growth, photometric)
Experimental: Thanatephorus cucumeris (Rhizoctonia solani)/Liquid Culture (Foot Rot, Damping-Off): Mycelia fragments of a newly grown liquid culture of the fungus are directly mixed into nutrient broth (PDB potato dextrose broth). After placing a DMSO solution of the test compounds into a 96-well microtiter plate at an application rate of 200 ppm, the nutrient broth containing the fungal material was added. The test plates were incubated at 24° C. and the inhibition of growth was determined photometrically 3-4 days after application.

[9] = system: Monographella nivalis (Microdochium nivale); experiment: Monographella nivalis (Microdochium nivale) / liquid culture (foot rot cereals); assay type: cell-based; conditions: PDB potato dextrose broth, 96-well plate, 24° C., 4-5 days after application, read-out: control of Monographella nivalis (inhibition of growth, photometric)
Experimental: Monographella nivalis (Microdochium nivale)/Liquid Culture (Foot Rot Cereals): Conidia of the fungus from cryogenic storage were directly mixed into nutrient broth (PDB potato dextrose broth). After placing a DMSO solution of test compound into a 96-well microtiter plate at an application rate of 200 ppm, the nutrient broth containing the fungal spores was added. The test plates were incubated at 24° C. and the inhibition of growth was determined photometrically 4-5 days after application. […].103

[10] = system: Blumeria graminis f. sp. tritici (Erysiphe graminis f. sp. tritici); experiment: Blumeria graminis f. sp. tritici (Erysiphe graminis f. sp. tritici) / wheat / leaf disc preventative (powdery mildew on wheat); assay type: in vivo; conditions: foliar, wheat cv. Kanzler leaf segments, inoculated 1 day after application, assessed 6-8 days after application, read-out: control of Blumeria graminis (percent disease control compared to untreated)
[11] = system: Magnaporthe grisea (Pyricularia oryzae); experiment: whole plant or invertebrate; assay type: in vivo; conditions: foliar, read-out: control of Magnaporthe grisea (percent disease control compared to untreated)

CCC(CO/N=C(\C)c1cccc(C)n1)Cc1cccc(/C(C)=N/OC)n1 (stereo not drawn) [P.04]
≥ 80%: pest or weed control at 200 ppm [1] | pest or weed control at 200 ppm [2] | pest or weed control at 200 ppm [3] | pest or weed control at 200 ppm (Pyrenophora teres) | inhibition at 200 ppm [4] | inhibition at 200 ppm [5] | inhibition at 200 ppm [6] | inhibition at 200 ppm [7] | inhibition at 200 ppm (Gaeumannomyces graminis) | inhibition at 200 ppm [8] | inhibition at 200 ppm [9] | pest or weed control at 200 ppm [10]

CO/N=C(\C)c1cccc(CCCO/N=C(\C)c2cc(C)cc(C)n2)n1 [P.10]
≥ 80%: pest or weed control at 200 ppm [1] | pest or weed control at 200 ppm [2] | pest or weed control at 200 ppm [3] | pest or weed control at 200 ppm (Pyrenophora teres) | inhibition at 200 ppm [4] | inhibition at 200 ppm [5] | inhibition at 200 ppm [6] | inhibition at 200 ppm [7] | inhibition at 200 ppm (Gaeumannomyces graminis) | inhibition at 200 ppm [8] | inhibition at 200 ppm [9] | pest or weed control at 200 ppm [10]

CO/N=C(\C)c1cccc(CCCO/N=C(\C)c2cccc(C)n2)n1 [P.12]
≥ 80%: pest or weed control at 200 ppm [1] | pest or weed control at 200 ppm [2] | pest or weed control at 200 ppm [3] | pest or weed control at 200 ppm (Pyrenophora teres) | inhibition at 200 ppm [4] | inhibition at 200 ppm [5] | inhibition at 200 ppm [6] | inhibition at 200 ppm [7] | inhibition at 200 ppm (Gaeumannomyces graminis) | inhibition at 200 ppm [8] | inhibition at 200 ppm [9] | pest or weed control at 200 ppm [10]

CON=C(c1ccccc1)c1cccc(CCCO/N=C(\C)c2cccc(C)n2)n1 [P.24]
≥ 80%: pest or weed control at 200 ppm [1] | pest or weed control at 200 ppm [2] | pest or weed control at 200 ppm [3] | pest or weed control at 200 ppm (Pyrenophora teres) | inhibition at 200 ppm [4] | inhibition at 200 ppm [5] | inhibition at 200 ppm [6] | inhibition at 200 ppm [7] | inhibition at 200 ppm (Gaeumannomyces graminis) | inhibition at 200 ppm [8] | inhibition at 200 ppm [9] | pest or weed control at 200 ppm [10]

CO/N=C(\C)c1cccc(CCCO/N=C(\C)c2nc(C)cc(C)n2)n1 [P.62, 1-(6-(3-[1-(4,6-dimethyl-pyrimidin-2-yl)-eth-(E)-ylideneaminooxy]-propyl)-pyridin-2-yl)-ethanone O-methyl oxime]
≥ 80%: pest or weed control at 200 ppm [2] | inhibition at 200 ppm [4] | inhibition at 200 ppm [6] | inhibition at 200 ppm [7] | inhibition at 200 ppm [8] | pest or weed control at 200 ppm [11]

CO/N=C(\C)c1cccc(CCCO/N=C2\CCCc3c2nc2ncccc2c3C)n1 [P.72]
≥ 80%: pest or weed control at 200 ppm [1] | pest or weed control at 200 ppm [2] | pest or weed control at 200 ppm [3] | pest or weed control at 200 ppm (Pyrenophora teres) | inhibition at 200 ppm [4] | inhibition at 200 ppm [5] | inhibition at 200 ppm [7] | pest or weed control at 200 ppm [10] | pest or weed control at 200 ppm [11]

C=CCOCCCc1cccc(/C(C)=N/OCCCc2cccc(/C(C)=N/OC)n2)n1 [P.74]
≥ 80%: pest or weed control at 200 ppm [3] | pest or weed control at 200 ppm (Pyrenophora teres) | inhibition at 200 ppm [4] | inhibition at 200 ppm [6] | inhibition at 200 ppm [7] | inhibition at 200 ppm (Gaeumannomyces graminis) | inhibition at 200 ppm [9] | pest or weed control at 200 ppm [10] | pest or weed control at 200 ppm [11]

COCCCc1cccc(/C(C)=N/OCCCc2cccc(/C(C)=N/OC)n2)n1 [P.76]
≥ 80%: pest or weed control at 200 ppm [3] | pest or weed control at 200 ppm (Pyrenophora teres) | inhibition at 200 ppm [4] | inhibition at 200 ppm [5] | inhibition at 200 ppm [6] | inhibition at 200 ppm [7] | inhibition at 200 ppm (Gaeumannomyces graminis) | inhibition at 200 ppm [9] | pest or weed control at 200 ppm [11]

CO/N=C(\C)c1cccc(CCCO/N=C2\CCCc3c2nc2cc(OC)c(OC)cc2c3C)n1 [P.82]
≥ 80%: pest or weed control at 200 ppm [3] | pest or weed control at 200 ppm (Pyrenophora teres) | inhibition at 200 ppm [4] | inhibition at 200 ppm [5] | inhibition at 200 ppm [6] | inhibition at 200 ppm [7] | inhibition at 200 ppm [8] | inhibition at 200 ppm [9] | pest or weed control at 200 ppm [10] | pest or weed control at 200 ppm [11]

CO/N=C(\C)c1cccc(CCCO/N=C2\CCCc3c2nc2ccsc2c3C)n1 [P.88]
≥ 80%: pest or weed control at 200 ppm [1] | pest or weed control at 200 ppm [2] | pest or weed control at 200 ppm [3] | pest or weed control at 200 ppm (Pyrenophora teres) | inhibition at 200 ppm [4] | inhibition at 200 ppm [5] | inhibition at 200 ppm [6] | inhibition at 200 ppm [7] | inhibition at 200 ppm [8] | inhibition at 200 ppm [9] | pest or weed control at 200 ppm [10] | pest or weed control at 200 ppm [11]

CO/N=C(\C)c1cccc(CCCO/N=C2\CCCc3c2nc2ccc(Cl)cc2c3C)n1 [P.91]
≥ 80%: pest or weed control at 200 ppm [1] | pest or weed control at 200 ppm [3] | inhibition at 200 ppm [4] | inhibition at 200 ppm [5] | inhibition at 200 ppm [6] | inhibition at 200 ppm [7] | inhibition at 200 ppm [8] | inhibition at 200 ppm [9] | pest or weed control at 200 ppm [10] | pest or weed control at 200 ppm [11]

CCc1c2c(nc3ccccc13)/C(=N/OCCCc1cccc(/C(C)=N/OC)n1)CCC2 [P.92]
≥ 80%: pest or weed control at 200 ppm [1] | pest or weed control at 200 ppm [2] | pest or weed control at 200 ppm [3] | pest or weed control at 200 ppm (Pyrenophora teres) | inhibition at 200 ppm [4] | inhibition at 200 ppm [5] | inhibition at 200 ppm [6] | inhibition at 200 ppm [7] | inhibition at 200 ppm [8] | inhibition at 200 ppm [9] | pest or weed control at 200 ppm [10] | pest or weed control at 200 ppm [11]

CO/N=C(\C)c1cccc(CCCO/N=C2\CCCc3cc4cc(Cl)ccc4nc32)n1 [P.96]
≥ 80%: pest or weed control at 200 ppm [3] | pest or weed control at 200 ppm (Pyrenophora teres) | inhibition at 200 ppm [4] | inhibition at 200 ppm [5] | inhibition at 200 ppm [6] | inhibition at 200 ppm [7] | inhibition at 200 ppm (Gaeumannomyces graminis) | inhibition at 200 ppm [8] | inhibition at 200 ppm [9] | pest or weed control at 200 ppm [10] | pest or weed control at 200 ppm [11]

CO/N=C(\C)c1cccc(CCCO/N=C2\CCCc3c2nc2ccccc2c3C2CC2)n1 [P.97]
≥ 80%: pest or weed control at 200 ppm [1] | pest or weed control at 200 ppm [2] | pest or weed control at 200 ppm [3] | pest or weed control at 200 ppm (Pyrenophora teres) | inhibition at 200 ppm [4] | inhibition at 200 ppm [5] | inhibition at 200 ppm [6] | inhibition at 200 ppm [7] | inhibition at 200 ppm [9] | pest or weed control at 200 ppm [10] | pest or weed control at 200 ppm [11]
